Assay: PK of compound of Formula (Ia) after single subcutaneous dose of solution formulations in Wistar Han rats
Format: in vivo
Conditions: male, Wistar Han, rat, plasma, sc, 50 mg/kg, SC 50 mg/kg
Description: Formulations containing the compound of Formula (Ia), or a pharmaceutically acceptable salt thereof, were prepared as solutions and optionally administered subcutaneously or intramuscularly to rats, rabbits, and/or dogs.
A solution of about 400 mg/mL of the compound of Formula (Ia) having 19.14 w/w % water, 40.66 w/w % PEG 300, 35.20 w/w % of a sodium salt of a compound of Formula (Ia), and 5.00% ethanol was prepared. The solution was administered subcutaneously to male Wistar Han rats at a dose level of about 50 mg/kg and dose volume of 0.125 mL/kg and the pharmacokinetic (PK) profile was determined.
A solution of about 500 mg/mL of the compound of Formula (Ia) having 16.64 w/w % water, 35.36 w/w % PEG 300, 43.00 w/w % of a sodium salt of a compound of Formula (Ia), and 5.00% ethanol was prepared. The solution was administered subcutaneously to male Wistar Han rats at a dose level of about 50 mg/kg and dose volume of 0.1 mL/kg and the pharmacokinetic (PK) profile was determined.
A solution of about 400 mg/mL of the compound of Formula (Ia) having 17.00 w/w % water, 36.40 w/w % PEG 300, 35.20 w/w % of a sodium salt of a compound of Formula (Ia), 5.00 w/w % ethanol, and 6.40 w/w % poloxamer 188 was prepared. The solution was administered subcutaneously to male beagle dogs at a dose level of about 12 mg/kg and male Wistar Han rats at a dose level of about 50 mg/kg. The pharmacokinetic profiles were determined, and the results for dogs are summarized in Table and Table, while the results for rats are summarized in Table and Table below.
A solution of about 500 mg/mL of the compound of Formula (Ia) having 14.06 w/w % water, 30.12 w/w % PEG 300, […] of a sodium salt of a compound of Formula (Ia), 5.00 w/w % ethanol, and 6.40 w/w % poloxamer 188 was prepared. The solution was administered subcutaneously to male beagle dogs at a dose level of about 12 mg/kg and male Wistar Han rats at a dose level of about 50 mg/kg. The pharmacokinetic profiles were determined, and the results for dogs are summarized in Table and Table, while the results for rats are summarized in Table and Table below.
A solution of about 300 mg/mL of the compound of Formula (Ia) having 23.33 w/w % water, 48.99 w/w % PEG 300, 26.47 w/w % of a sodium salt of a compound of Formula (Ia), and 1.21 w/w % poloxamer 188 was prepared. The solution was administered subcutaneously to male beagle dogs at a dose level of about 6 mg/kg and male Wistar Han rats at a dose level of about 50 mg/kg. The pharmacokinetic profiles were determined, and the results for dogs are summarized in Table and Table, while the results for rats are summarized in Table and Table below.
A solution of about 400 mg/mL of the compound of Formula (Ia) having 18.80 w/w % water, 40.25 w/w % PEG 300, 34.38 w/w % of a sodium salt of a compound of Formula (Ia), 5.00 w/w % ethanol, and 1.57 w/w % poloxamer 188 was prepared. The solution was administered subcutaneously to male beagle dogs at a dose level of about 12 mg/kg and male Wistar Han rats at a dose level of about 50 mg/kg. The pharmacokinetic profiles were determined, and the results for dogs are summarized in Table and Table, while the results for rats are summarized in Table and Table below.
A solution of about 500 mg/mL of the compound of Formula (Ia) having 16.29 w/w % water, 34.88 w/w % PEG 300, 41.92 w/w % of a sodium salt of a compound of Formula (Ia), 5.00 w/w % ethanol, and 1.91 w/w % poloxamer 188 was prepared. The solution was administered subcutaneously to male beagle dogs at a dose level of about 12 mg/kg and male Wistar Han rats at a dose level of about 50 mg/kg. The pharmacokinetic profiles were determined, and the results for dogs are summarized in Table and Table, while the results for rats are summarized in Table and Table below.
A solution of about 400 mg/mL of the compound of Formula (Ia) having 20.90 w/w % water, 44.72 w/w % PEG 300, and 34.38 w/w % of a sodium salt of a compound of Formula (Ia) was prepared. […]

[1] = individual rats, solution T, 400 mg/mL
[2] = individual rats, solution U, 500 mg/mL
[3] = individual rats, solution V, 300 mg/mL
[4] = mean, n = 3 rats, solution R, 400 mg/mL
[5] = mean, n = 3 rats, solution S, 500 mg/mL
[6] = mean, n = 3 rats, solution V, 300 mg/mL
[7] = mean, n = 5 rats, solution T, 400 mg/mL
[8] = mean, n = 5 rats, solution U, 500 mg/mL
[9] = individual rats, solution R, 400 mg/mL
[10] = individual rats, solution S, 500 mg/mL

CC(C)(C#Cc1ccc(-c2ccc(Cl)c3c(NS(C)(=O)=O)nn(CC(F)(F)F)c23)c([C@H](Cc2cc(F)cc(F)c2)NC(=O)Cn2nc(C(F)(F)F)c3c2C(F)(F)[C@@H]2C[C@H]32)n1)S(C)(=O)=O [compound of Formula (Ia)]
concentration at 8 h [1]: 294 nM
concentration at 8 h [2]: 176 nM
concentration at 8 h [3]: 170 nM
concentration at 8 h [4]: 112 nM
concentration at 8 h [5]: 100 nM
concentration at 8 h [6]: 155 nM
concentration at 8 h [7]: 211 nM
concentration at 8 h [8]: 142 nM
concentration at 24 h [9]: 167 nM
concentration at 24 h [10]: 111 nM
concentration at 24 h [2]: 300 nM
concentration at 24 h [3]: 222 nM
concentration at 24 h [4]: 162 nM
concentration at 24 h [5]: 127 nM
concentration at 24 h [6]: 193 nM
concentration at 24 h [7]: 339 nM
concentration at 24 h [8]: 224 nM
concentration at 48 h [9]: 184 nM
concentration at 48 h [10]: 92.6 nM
concentration at 48 h [3]: 265 nM
concentration at 48 h [4]: 151 nM
concentration at 48 h [5]: 123 nM
concentration at 48 h [6]: 197 nM
concentration at 48 h [7]: 307 nM
concentration at 48 h [8]: 211 nM
concentration at 72 h [9]: 168 nM
concentration at 72 h [10]: 95.8 nM
concentration at 72 h [1]: 353 nM
concentration at 72 h [3]: 187 nM
concentration at 72 h [4]: 148 nM
concentration at 72 h [5]: 127 nM
concentration at 72 h [6]: 148 nM
concentration at 72 h [7]: 247 nM
concentration at 72 h [8]: 197 nM
concentration at 96 h [9]: 181 nM
concentration at 96 h [10]: 105 nM
concentration at 96 h [2]: 230 nM
concentration at 96 h [3]: 164 nM
concentration at 96 h [4]: 152 nM
concentration at 96 h [5]: 120 nM
concentration at 96 h [6]: 136 nM
concentration at 96 h [7]: 240 nM
concentration at 96 h [8]: 167 nM
concentration at 168 h [9]: 191 nM
concentration at 168 h [10]: 123 nM
concentration at 168 h [3]: 100 nM
concentration at 168 h [4]: 160 nM
concentration at 168 h [5]: 109 nM
concentration at 168 h [6]: 104 nM
concentration at 168 h [7]: 173 nM
concentration at 168 h [8]: 154 nM
concentration at 336 h [9]: 251 nM
concentration at 336 h [3]: 194 nM
concentration at 336 h [4]: 261 nM
concentration at 336 h [5]: 183 nM
concentration at 336 h [6]: 201 nM
concentration at 336 h [7]: 254 nM
concentration at 336 h [8]: 244 nM
concentration at 504 h [9]: 348 nM
concentration at 504 h [10]: 415 nM
concentration at 504 h [3]: 241 nM
concentration at 504 h [4]: 353 nM
concentration at 504 h [5]: 287 nM
concentration at 504 h [6]: 265 nM
concentration at 504 h [7]: 301 nM
concentration at 504 h [8]: 303 nM
concentration at 672 h [9]: 290 nM
concentration at 672 h [10]: 407 nM
concentration at 672 h [3]: 274 nM
